Results reported in US8889881B2, “Compound having skin-whitening, anti-oxidizing and PPAR activities and medical use therefor” (Pusan National University Industry —University Cooperation …, priority 2011, dated 2014).

Experiments:
[1] = tested on: Mushroom-derived tyrosinase; assay: Tyrosinase inhibitory effect; format: biochemical; conditions: 1 mM L-tyrosin, pH 6.5, 25° C., 30 minutes, OD492; positive control kojic acid; FIGS. 3 and 4
Protocol: Mushroom-derived tyrosinase was sued as an enzyme source in the present experiment. Tyrosinase activities were assayed according to a slightly-modified conventionally known method (Life Sci., 1999, 65, 241-246). In detail, 20 μl of a mushroom-derived tyrosinase (1000 units) aqueous solution was added to 96-well microplate (Nunc, Denmark) to prepare 200 μl of the total volume of assay mixture containing 1 mM L-tyrosin solution and 50 mM phosphate buffer solution (pH 6.5). The assay mixture was cultured at a temperature of 25° C. for 30 minutes.

[2] = tested on: YPEN-1 cells (rat prostatic endothelial cell line); assay: In vitro ROS scavenging activity assay (DCFDA); format: cell-based; conditions: cells pre-treated with 50 μM SIN-1 for 1 hour; DCFDA fluorescence; positive control trolox; FIGS. 1 and 2
Protocol: YPEN-1 cells (rat prostatic endothelial cell line) was obtained from American type culture collection (ATCC, Manassas, Va., USA), and the cells were cultured by using a dulbecco's modified eagle medium (DMEM, Nissui, Tokyo, Japan) containing 2 mM L-glutamine, […], 2.5 mg/L amphotericin B, and 5% inactivated fetal bovine serum (FBS). Also, the cells were maintained at a temperature of 37° C. in a humid atmosphere-like condition containing 5% CO2 and 95% air. […] The cells were sub-cultured in 100 mm plastic flask (Corning Co., New York, USA) every two days to maintain the cell line.
2′,7′-dichlorodihydrofluorescein diacetate (DCFDA) assay method according to a conventionally known method (Chem Res Toxicol. 5: 227-231, 1992) was used. In detail, 12.5 mM DCFDA dissolved in 99.9% ethanol and 600 U/ml esterase dissolved in tertiary distilled water were stored as a stock solution at a temperature of −20° C., and a 2′,7′-dichlorodihydrofluorescein (DCFH) solution prepared by mixing 10 mM DCFDA and 6 U/ml esterase was cultured at a temperature of 22° C. for 20 minutes, and then, refrigerated in a dark place before use. […] Vascular endothelial cells that were pre-treated with 50 μM 3-morpholinosydnonimine hydrochloride (SIN-1) for 1 hour were used as a reactive oxygen generation source.

PPAR gamma-LBD = biological target: T1, PPAR gamma-LBD (Homo sapiens, UniProt P37231); assay: PPAR assay, PPARγ; format: binding; conditions: sample final concentration 100 μM; positive control rosiglitazone; FIGS. 7 and 8
T1 sequence (P37231 238-503 limits assumed): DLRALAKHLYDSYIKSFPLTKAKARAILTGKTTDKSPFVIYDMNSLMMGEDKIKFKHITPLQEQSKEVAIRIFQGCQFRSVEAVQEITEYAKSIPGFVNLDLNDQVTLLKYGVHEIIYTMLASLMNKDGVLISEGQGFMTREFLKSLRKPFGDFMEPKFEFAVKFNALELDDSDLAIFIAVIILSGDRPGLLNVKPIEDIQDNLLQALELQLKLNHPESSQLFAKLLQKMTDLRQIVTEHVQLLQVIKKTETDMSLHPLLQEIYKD

PPAR alpha-LBD = biological target: T2, PPAR alpha-LBD (Homo sapiens, UniProt Q07869); assay: PPAR assay, PPARα; conditions: for PPARα activation (competitive activation rate), compared with fenofibrate: sample final concentration 100 μM, positive control fenofibrate, FIGS. 5 and 6; for simultaneous activation of PPARα and PPARγ: summary of the PPARα and PPARγ assays, sample 100 μM
T2 sequence (Q07869 239-466 limits assumed): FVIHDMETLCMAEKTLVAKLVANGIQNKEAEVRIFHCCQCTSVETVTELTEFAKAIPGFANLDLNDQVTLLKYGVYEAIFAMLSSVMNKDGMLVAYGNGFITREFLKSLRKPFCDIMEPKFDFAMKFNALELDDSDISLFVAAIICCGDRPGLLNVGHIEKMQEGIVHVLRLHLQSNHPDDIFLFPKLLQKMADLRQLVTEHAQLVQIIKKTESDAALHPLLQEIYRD

Structure (SMILES)	tyrosinase inhibitory activities, compared with kojic acid [1]	melting point [°C]	scavenging effects on ROS generated by vascular endothelial cells, compared with trolox [2]	PPARγ activation (competitive activation rate), compared with rosiglitazone (PPAR gamma-LBD)	PPARα activation (competitive activation rate), compared with fenofibrate (PPAR alpha-LBD)	simultaneous activation of PPARα and PPARγ (PPAR alpha-LBD)
Oc1ccc(-c2nc3cc(C(F)(F)F)ccc3s2)c(O)c1 [Compound 30, 4-(5-(trifluoromethyl)benzo[d]thiazol-2-yl)benzene-1,3-diol]	better tyrosinase inhibitory activities than a kojic acid	236.2 to 238.2	–	–	–	–
O=C(O)c1csc(-c2ccc(O)cc2O)n1 [Compound 101, 2-(2,4-Dihydroxyphenyl)thiazole-4-carboxylic acid]	better tyrosinase inhibitory activities than a kojic acid	–	–	–	–	–
O=C(O)[C@@H]1CSC(c2ccc(O)cc2O)N1 (mixture of isomers) [Compound 3, (2R/S,4R)-2-(2,4-dihydroxyphenyl)thiazolidine-4-carboxylic acid]	better tyrosinase inhibitory activities than a kojic acid	–	–	–	–	–
COc1cc(C2Nc3cc(Cl)ccc3S2)cc(OC)c1O (centres unmarked) [Compound 94, 4-(5-chloro-2,3-dihydrobenzo[d]thiazol-2-yl)-2,6-dimethoxyphenol]	better tyrosinase inhibitory activities than a kojic acid	155.8 to 158.6	as high scavenging effects on ROS generated by vascular endothelial cells as trolox	very excellent PPARγ activation agent compared to rosiglitazone	very excellent PPARα activation agent compared to fenofibrate	simultaneously activates PPARα and PPARγ
CC(C)(Oc1ccc(-c2nc3cc(Cl)ccc3s2)cc1)C(=O)O [Compound 99, 2-(4-(5-chlorobenzo[d]thiazol-2-yl)phenoxy)-2-methylpropanoic acid]	better tyrosinase inhibitory activities than a kojic acid	–	–	very excellent PPARγ activation agent compared to rosiglitazone	very excellent PPARα activation agent compared to fenofibrate	simultaneously activates PPARα and PPARγ
Oc1ccc(-c2nc3cc(Cl)ccc3s2)cc1 [Compound 82, 4-(5-chlorobenzo[d]thiazol-2-yl)phenol]	better tyrosinase inhibitory activities than a kojic acid	259.3 to 263.1	–	–	–	–
COc1ccc(C2N[C@H](C(=O)O)CS2)c(OC)c1 (mixture of isomers) [Compound 9, (2R/S,4R)-2-(2,4-dimethoxyphenyl)thiazolidine-4-carboxylic acid]	better tyrosinase inhibitory activities than a kojic acid	137.7 to 139.2	–	–	–	–
COc1cc(-c2nc3ccccc3[nH]2)cc(OC)c1O [Compound 55, 4-(1H-benzo[d]imidazol-2-yl)-2,6-dimethoxyphenol]	better tyrosinase inhibitory activities than a kojic acid	–	–	very excellent PPARγ activation agent compared to rosiglitazone	very excellent PPARα activation agent compared to fenofibrate	simultaneously activates PPARα and PPARγ
Oc1ccc(-c2nc3ccccc3s2)cc1 [Compound 13, 4-(benzo[d]thiazol-2-yl)phenol]	better tyrosinase inhibitory activities than a kojic acid	–	–	very excellent PPARγ activation agent compared to rosiglitazone	very excellent PPARα activation agent compared to fenofibrate	simultaneously activates PPARα and PPARγ
Oc1ccc(-c2nc3cc(Cl)ccc3s2)cc1O [Compound 83, 4-(5-chlorobenzo[d]thiazol-2-yl)benzene-1,2-diol]	better tyrosinase inhibitory activities than a kojic acid	127.4 to 129.1	as high scavenging effects on ROS generated by vascular endothelial cells as trolox	–	–	–
COC(=O)[C@@H]1CSC(c2ccc(O)c(O)c2)N1 (mixture of isomers) [Compound 104, (2R/S,4R)-methyl 2-(3,4-dihydroxyphenyl)thiazolidine-4-carboxylate]	–	116 to 118	as high scavenging effects on ROS generated by vascular endothelial cells as trolox	–	–	–
Oc1ccc(-c2nc3ccccc3s2)c(O)c1 [Compound 15, 4-(benzo[d]thiazol-2-yl)benzene-1,3-diol]	better tyrosinase inhibitory activities than a kojic acid	–	–	–	–	–
Oc1ccc(-c2nc3ccccc3[nH]2)c(O)c1 [Compound 45, 4-(1H-benzo[d]imidazol-2-yl)benzene-1,3-diol]	better tyrosinase inhibitory activities than a kojic acid	–	–	very excellent PPARγ activation agent compared to rosiglitazone	very excellent PPARα activation agent compared to fenofibrate	simultaneously activates PPARα and PPARγ
Oc1ccc(C2Nc3cc(C(F)(F)F)ccc3S2)cc1Br (centres unmarked) [Compound 119, 2-bromo-4-(5-(trifluoromethyl)-2,3-dihydrobenzo[d]thiazol-2-yl)phenol]	–	–	as high scavenging effects on ROS generated by vascular endothelial cells as trolox	very excellent PPARγ activation agent compared to rosiglitazone	very excellent PPARα activation agent compared to fenofibrate	simultaneously activates PPARα and PPARγ
Oc1ccc(-c2nc3ccccc3[nH]2)cc1O [Compound 44, 4-(1H-benzo[d]imidazol-2-yl)benzene-1,2-diol]	–	268.5 to 269.8	as high scavenging effects on ROS generated by vascular endothelial cells as trolox	very excellent PPARγ activation agent compared to rosiglitazone	very excellent PPARα activation agent compared to fenofibrate	simultaneously activates PPARα and PPARγ
O=C(O)[C@@H]1CSC(c2ccc(O)c(O)c2)=N1 [Compound 102, (4R)-2-(3,4-dihydroxyphenyl)-4,5-dihydrothiazole-4-carboxylic acid]	–	178 to 179	as high scavenging effects on ROS generated by vascular endothelial cells as trolox	–	–	–
